{"source": "patent US11866409B2", "about": "“Apoptosis related protein in the tgf-beta signaling pathway (ARTS) mimetic compounds, compositions, methods and uses thereof in induction of differentiation and/or apoptosis of premalignant and malignant cells, thereby restoring their normal-like phenotype” (CARMEL-HAIFA UNIVERSITY ECONOMIC CORPORATION LTD., priority 2015, dated 2024)", "key": {"M2 organoids": {"test_system": "M2 organoids", "assay": "M2 organoids in 3D BME culture, polarization and lumen formation", "type": "cell-based, human", "experimental": "Cells were harvested from their growth plates using 0.25% trypsin EDTA. Collected cells were cultured in Cultrex® growth factor reduced Basement Membrane Extract (BME: Trevigen, Inc) as follows: An 8 chamber glass slide system (Lab-TEK® II, Naperville, IL) was coated with 60 μl BME [Barkan D. et al., Cancer Research (2008)](protein concentration between 15 mg/ml; thickness˜1-2 mm). 5×10^3 cells per well were re-suspended in DMEM/F12 supplemented with 2.5% DHS and 2% BME and cultured on the coated slides. Slides were incubated at 37° C., 5% CO2 incubator. Cells were re-fed every 4 days. Cell morphology was monitored by light microscopy. Immunofluorescence images were captured by Nikon A1-R confocal laser scanning microscope (Haifa University, Haifa, Israel).\nLaminin5 immunofluorescence staining: was performed as described by Barkan et al., [Cancer Research (2008)]. Briefly, cells cultured in 8 well chamber glass slides in 3D BME, as described above. The cultured cells were fixed and permeabalized for 5 minutes with 4% Paraformaldehyde (PFA) containing 5% sucrose and 0.2% Triton X-100, and re-fixed for an additional 25 minutes with 4% PFA containing 5% sucrose. The cells were washed for 10 minutes with PBS and an additional 10 minutes with PBS containing 0.05% Tween 20 (Sigma). Fixed cells were blocked with 3% BSA in PBS for 1 hour and incubated overnight at 4° C. with primary antibody (Rabbit polyclonal antibody to Laminin-5 (1:200)). The cells were washed three times with PBS for 15 minutes each, and incubated for 1 hour with […] conjugated to Alexa Fluor®647 (Invitrogen), washed as above and mounted with VECTASHIELD mounting medium with 4′,6-diamidino-2-phenylindole (DAPI). For F-actin staining cells were incubated over night with Alexa-Fluor®488 Phalloidin (1:40) (Molecular Probes) washed three times with PBS for 15 minutes each, and mounted with VECTASHIELD mounting medium with DAPI. The slides were imaged using Nikon A1-R confocal laser scanning microscope (Haifa University, Haifa, Israel). […]"}, "Bcl-2 [1]": {"test_system": "Bcl-2", "assay": "Proteasome-mediated degradation study, HeLa cervical cancer cells", "type": "cell-based", "experimental": "(§1) The cells were lysed in WCE (whole-cell extract) buffer [[…] Hepes, pH 7.7, 0.3M NaCl, 1.5 mM MgCl2, 0.2 mM EDTA, 0.1% Triton X-100, 100 μg/ml PMSF and protease inhibitor cocktail (Roche, 1:100 dilution)]. 100 μg of total cell protein, measured with the Bio-Rad Protein Assay kit, were separated by SDS-PAGE (12%) followed by transfer for 2 h on to a nitrocellulose membrane. The membrane was blocked with 5% (w/v) non-fat dried skimmed milk powder in PBS supplemented with 0.05% Tween20 (PBS-T) for 1 hour at room temperature (R.T). Membrane was then probed with primary antibody at 4° C. overnight. Next, the membrane was incubated with the appropriate HRP-conjugated secondary antibody, for 1 hour at R.T. and washed 15 min×3 with PBS-T. WesternBright ECL (Advansta) was added to the membrane for 2 min and analyzed using ImageQuant LAS-4000 analyzer (GE Healthcare Life Sciences) & “ImageQuant LAS-4000” software (GE Healthcare Life Sciences). Densitometry analysis was performed using ImageQuant total lab 7 (GE Healthcare Life Sciences), image analysis software.\n(§2) HeLa cervical cancer cells: 1.5*10^6 HeLa cells were seeded on a 10 cm plate in DMEM and were propagated to 80% confluence. Cells were treated for 2 hour with either DMSO (control) or 30 μM A4 together with 20 μM MG-132 (proteasome inhibitor) or without MG-132. […]"}, "[2]": {"test_system": "M2 cells (MCF10AT1K, premalignant breast cells)", "assay": "Proliferation assay of M2 cells in 2D culture", "type": "cell-based, human", "conditions": "24 and 48 hours", "experimental": "Human breast cancer cell lines MCF-10A (M1) was received from Prof. Israel Vlodavsky (Technion, Israel), MCF10AT1K (M2) and MCF10ACA1 h (M3) were received from Dr. Fred Miller (Barbara Ann Karmanos Cancer Institute). M1 and M2 cells were maintained in DMEM/F12 supplemented with 5% donor horse serum (DHS), 1% sodium pyrovate, 1% L-glutamine, 0.02 μg/ml epidermal growth factor (EGF; Peprotech), 0.01 mg/ml insulin (Sigma), 0.5 μg/ml hydrocortisone (Sigma), 0.1 μg/ml cholera toxin (Sigma) and 1% penicillin-streptomycin at 37° C., 5% CO2 incubator. M3 cells were maintained in DMEM/F12 supplemented with 5% DHS and 1% penicillin-streptomycin at 37° C. and incubated in 5% CO2 incubator.\nThe CellTiter 96 AqueousOne Solution of cell proliferation assay kit (Promega) was added to the wells for 2 hours to measure cell proliferation according the manufacturer's instructions. The absorbance was recorded at 490 nm."}, "XIAP [3]": {"biological_target": "T1, XIAP (Homo sapiens, UniProt P98170)", "T1 sequence (P98170 whole entry)": "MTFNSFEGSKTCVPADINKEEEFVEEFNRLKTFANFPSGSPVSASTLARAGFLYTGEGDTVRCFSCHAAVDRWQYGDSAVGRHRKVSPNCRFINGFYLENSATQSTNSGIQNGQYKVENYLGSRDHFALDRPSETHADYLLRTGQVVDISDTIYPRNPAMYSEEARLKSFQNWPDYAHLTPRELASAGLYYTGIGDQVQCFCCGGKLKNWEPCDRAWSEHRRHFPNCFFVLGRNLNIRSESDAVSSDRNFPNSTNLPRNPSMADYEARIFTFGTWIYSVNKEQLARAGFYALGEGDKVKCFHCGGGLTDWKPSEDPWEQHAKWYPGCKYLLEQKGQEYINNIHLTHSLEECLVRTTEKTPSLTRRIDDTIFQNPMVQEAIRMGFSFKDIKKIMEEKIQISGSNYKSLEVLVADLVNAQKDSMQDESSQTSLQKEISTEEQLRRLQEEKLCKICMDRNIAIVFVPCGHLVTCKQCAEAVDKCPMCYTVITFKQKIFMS", "assay": "Proteasome-mediated degradation study, HeLa cervical cancer cells", "type": "cell-based", "set-up": "endogenous in cells; host or cells: HeLa cervical cancer cells", "experimental": "as §1, §2"}, "XIAP [4]": {"biological_target": "T1, XIAP", "assay": "Western blot, A375 human melanoma cells", "type": "cell-based", "set-up": "endogenous in cells; host or cells: A375 human melanoma cells", "conditions": "20 μM, 24 hrs", "experimental": "as §1\n(§3) The candidate molecules were next subjected to functional assays, examining their ability to induce apoptosis. Therefore, the expression of several apoptotic markers was examined in A375 human melanoma cells exposed to 20 μM of each of the candidate compounds. […] No effect on cCaspase or c-PARP was shown."}, "[5]": {"biological_target": "T2, fluorescently labeled Bir3 (His-tagged) domain of XIAP, residues 252-350 (Homo sapiens, UniProt P98170)", "T2 construct": "His-tagged Bir3 (XIAP 252-350) was expressed and purified; made in house", "T2 sequence (P98170 252-350)": "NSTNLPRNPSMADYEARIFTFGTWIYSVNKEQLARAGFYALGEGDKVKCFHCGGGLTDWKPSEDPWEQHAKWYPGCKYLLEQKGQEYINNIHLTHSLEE", "assay": "MicroScale Thermophoresis (MST) binding to Bir3 domain of XIAP", "conditions": "340 nM fl-labeled Bir3, pH 5.6, 2% DMSO, read-out: calculated Kd", "experimental": "His-tagged Bir3 (XIAP 252-350) was expressed and purified as previously described (Reingewertz et al, 2011). The purified Bir3 was labeled with the Monolith NT™ Protein Labeling Kit RED according to the supplied labeling protocol.\n(§4) 340 nM of fl-labeled Bir3 was titrated with A4 compound in 1:1 dilutions beginning at 500 μM, in a 25 mM Tri-Sodium acetate buffer pH 5.6, 2% DMSO and 0.05% Tween 20. The measurements were performed on a NanoTemper Monolith instrument.\n(§5) To further characterize the A4 candidate, MicroScale Thermophoresis (MST) was used to evaluate the binding of the A4 compound to fluorescently labeled Bir3 (His-tagged) domain of XIAP, residues 252-350. […] Microscale thermophoresis (MST) is a technology for the interaction analysis of biomolecules. Microscale thermophoresis is the directed movement of particles in a microscopic temperature gradient. Any change of the hydration shell of biomolecules due to changes in their structure/conformation results in a relative change of the movement along the temperature gradient and is used to determine binding affinities. MST allows measurement of interactions directly in solution without the need of immobilization to a surface (immobilization-free technology)."}, "Bcl-2 [6]": {"test_system": "Bcl-2", "assay": "Western blot, A375 human melanoma cells", "type": "cell-based", "conditions": "20 μM, 24 hrs", "experimental": "as §1, §3"}, "cCaspase": {"test_system": "cCaspase", "assay": "Western blot, A375 human melanoma cells", "type": "cell-based", "conditions": "20 μM, 24 hrs", "experimental": "as §1, §3"}, "c-PARP": {"test_system": "c-PARP", "assay": "Western blot, A375 human melanoma cells", "type": "cell-based", "conditions": "20 μM, 24 hrs", "experimental": "as §1, §3"}, "[7]": {"test_system": "293 cells stably expressing Bcl-2 cherry reporter", "assay": "Combination with BH3 mimetic in Bcl-2 cherry reporter cells", "type": "cell-based", "conditions": "A4 combined with ABT199, 293 cells Bcl-2 cherry reporter", "experimental": "pcDNA-3.1 vector carrying Bcl2 with an mCherry fusion c′ terminus fluorescent tag and neomycin (G418) resistance sequences was transfected into HEK 293T cells using Turbofect (Fermentas). Cells were then treated with G418, and resistant fluorescent cells were further sorted and isolated by FACS-sorter. Mono-clones of the stably expressing Bcl2-mCherry and G418 resistance were propagated and used for the experiments."}, "XIAP [8]": {"biological_target": "T1, XIAP", "assay": "Proteasome-mediated degradation study, T47D breast cancer cells", "type": "cell-based", "set-up": "endogenous in cells; host or cells: T47D breast cancer cells", "experimental": "as §1\n(§6) T47D breast cancer cells: 1*10^6 T47D cells were seeded on a 10 cm plate in RPMI and were propagated to 80% confluence. Cells were treated for 1 hour with either DMSO (control) or 30 μM A4 together with 20 μM MG-132 (proteasome inhibitor) or without MG-132. […]"}, "[9]": {"biological_target": "recombinant GST-tagged XIAP (Homo sapiens, UniProt P98170)", "sequence (P98170 whole entry)": "as the sequence (P98170 whole entry) above", "assay": "MicroScale Thermophoresis (MST) binding to whole XIAP", "conditions": "GST-tagged XIAP (FIG. 4D), read-out: calculated Kd", "experimental": "as §4, §5\nTo further characterize the A4 candidate, the MSTtechnology described above was used to evaluate the binding of the A4 compound to recombinant GST-tagged XIAP, as presented in FIG. 4D."}, "Bcl-2 [10]": {"test_system": "Bcl-2", "assay": "Proteasome-mediated degradation study, T47D breast cancer cells", "type": "cell-based", "experimental": "as §1, §6"}, "Bcl-2 [11]": {"test_system": "Bcl-2", "assay": "Western blot, M2 cells transfected with 6myc-ARTS, caspase inhibition", "type": "cell-based, human", "experimental": "(§7) The cells were transfected with either 6-MycTag-ARTS in pCS2 or sport-ARTS in pCMV plasmid, that was produced in Sarit Larisch lab as described previously (Larisch & Yi […]). For the transfection the Turbofect (Fermentas) was used with concentration of 0.1 μg/l DNA for 6-MycTag-ARTS and sport-ARTS plasmid.\nas §1\n(§8) The inventors next examined whether caspases mediate the cleavage of the N′-terminal part of ARTS. To this end, the inventors transfected M2 cells with 6myc-ARTS and cells were either untreated or treated with a pan inhibitor of all caspases, Q-VD. […] In contrast, no change in XIAP levels was shown (FIG. 7D)."}, "6myc-ARTS": {"test_system": "6myc-ARTS", "assay": "Western blot, M2 cells transfected with 6myc-ARTS, caspase inhibition", "type": "cell-based, human", "experimental": "as §7, §1, §8"}, "XIAP [12]": {"test_system": "XIAP", "assay": "Western blot, M2 cells transfected with 6myc-ARTS, caspase inhibition", "type": "cell-based, human", "experimental": "as §7, §1, §8"}, "[13]": {"conditions": "30 μM A4 + 20 μM MG-132, 2 hour"}, "[14]": {"conditions": "30 μM A4 + 20 μM MG-132, 1 hour"}}, "data": [{"smiles": "COC(=O)c1[nH]c2ccc(Cl)cc2c1NC(=O)CN1CCN(Cc2ccccc2)CC1", "note": "[A4, methyl 5-chloro-3-[[2-[4-(phenylmethyl)piperazin-1-yl]acetyl]amino]-1H-indole-2-carboxylate]", "values": [{"measurement": "apicobasal polarization (GM130, Laminin 5 staining)", "setting": "M2 organoids; 40 μM, 7 days", "value": "initiation of apical staining of GM130 and basal staining of Laminin 5"}, {"measurement": "organoid phenotype", "setting": "M2 organoids; 40 uM, 14 days", "value": "conversion thereof to a normal-like phenotype"}, {"measurement": "polarization and lumen formation", "setting": "M2 organoids; 40 uM, 14 days", "value": "apicobasal polarization of M2 organoids followed by luminal formation"}, {"measurement": "Bcl-2 levels with proteasome inhibitor", "setting": "Bcl-2 [1]; [13]", "value": "restored"}, {"measurement": "Bcl-2 levels", "setting": "Bcl-2 [1]; 30 μM A4, 2 hour", "value": "decrease"}, {"measurement": "apoptotic cells", "setting": "[2]", "value": "only low amount of apoptotic cells"}, {"measurement": "cell proliferation", "setting": "[2]", "value": "decrease in cell proliferation"}, {"measurement": "XIAP levels with proteasome inhibitor", "setting": "XIAP [3]; [13]", "value": "restored"}, {"measurement": "XIAP levels", "setting": "XIAP [3]; 30 μM A4, 2 hour", "value": "specific decrease"}, {"measurement": "levels of XIAP", "setting": "XIAP [4]", "value": "clearly reduced"}, {"measurement": "Kd", "setting": "[5]", "value": "46.1 ± 3.65", "unit": "µM"}, {"measurement": "levels of Bcl-2", "setting": "Bcl-2 [6]", "value": "clearly reduced"}, {"measurement": "effect on cCaspase", "setting": "cCaspase", "value": "No effect"}, {"measurement": "effect on c-PARP", "setting": "c-PARP", "value": "No effect"}, {"measurement": "effect of combination with BH3 mimetic", "setting": "[7]", "value": "synergetic effect"}, {"measurement": "XIAP levels with proteasome inhibitor", "setting": "XIAP [8]; [14]", "value": "restored"}, {"measurement": "XIAP levels", "setting": "XIAP [8]; 30 μM A4, 1 hour", "value": "specific decrease"}, {"measurement": "Kd", "setting": "[9]", "value": "34.6 ± 2.48", "unit": "µM"}, {"measurement": "Bcl-2 levels with proteasome inhibitor", "setting": "Bcl-2 [10]; [14]", "value": "restored"}, {"measurement": "Bcl-2 levels", "setting": "Bcl-2 [10]; 30 μM A4, 1 hour", "value": "decrease"}]}, {"smiles": "CC(C)[C@H](NC(=O)c1ccc2ccccc2n1)C(=O)N[C@@H](CC(=O)O)C(=O)COc1c(F)cccc1F", "note": "[Q-VD]", "values": [{"measurement": "Bcl-2 levels", "setting": "Bcl-2 [11]", "value": "significantly increased"}, {"measurement": "cleaved 6-myc ARTS", "setting": "6myc-ARTS", "value": "decrease"}, {"measurement": "uncleaved 6myc-ARTS", "setting": "6myc-ARTS", "value": "increase"}, {"measurement": "XIAP levels", "setting": "XIAP [12]", "value": "no change"}]}]}
